# According to ChEMBL document CHEMBL1201862, “PubChem BioAssay data set” (2004):
#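 Compound exposure: 48 hours, 5 concentrations, 96-well plates. The concentration for 50% growth inhibition is given as GI50.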 Activity calls are given as the source filed them. No stated cut-off is given here; in the data, active = GI50 up to about 1.1 µM and inactive = higher.
# Tests used:
# Assay in all cases: DTP human tumour cell line panel, 48 h
# 786-0 = test system: 786-0
# A498 = test system: A498
# A549 = test system: A549
# ACHN = test system: ACHN
# BT-549 = test system: BT-549
# CAKI-1 = test system: CAKI-1
# CCRF-CEM = test system: CCRF-CEM
# COLO 205 = test system: COLO 205
# DU-145 = test system: DU-145
# EKVX = test system: EKVX
# HCC 2998 = test system: HCC 2998
# HCT-116 = test system: HCT-116
# HCT-15 = test system: HCT-15
# HL-60 = test system: HL-60
# HOP-62 = test system: HOP-62
# HOP-92 = test system: HOP-92
# HT-29 = test system: HT-29
# Hs-578T = test system: Hs-578T
# IGROV-1 = test system: IGROV-1
# K562 = test system: K562
# KM12 = test system: KM12
# LOX IMVI = test system: LOX IMVI
# M14 = test system: M14
# MCF7 = test system: MCF7
# MDA-MB-231 = test system: MDA-MB-231
# MDA-MB-435 = test system: MDA-MB-435
# MDA-N = test system: MDA-N
# MOLT-4 = test system: MOLT-4
# Malme-3M = test system: Malme-3M
# NCI-H226 = test system: NCI-H226
# NCI-H23 = test system: NCI-H23
# NCI-H460 = test system: NCI-H460
# NCI-H522 = test system: NCI-H522
# NCI/ADR-RES = test system: NCI/ADR-RES
# OVCAR-3 = test system: OVCAR-3
# OVCAR-4 = test system: OVCAR-4
# OVCAR-5 = test system: OVCAR-5
# OVCAR-8 = test system: OVCAR-8
# PC-3 = test system: PC-3
# RPMI-8226 = test system: RPMI-8226
# RXF 393 = test system: RXF 393
# SF-268 = test system: SF-268
# SF-295 = test system: SF-295
# SF-539 = test system: SF-539
# SK-MEL-28 = test system: SK-MEL-28
# SK-MEL-2 = test system: SK-MEL-2
# SK-MEL-5 = test system: SK-MEL-5
# SK-OV-3 = test system: SK-OV-3
# SN12C = test system: SN12C
# SNB-19 = test system: SNB-19
# SNB-75 = test system: SNB-75
# SR = test system: SR
# SW-620 = test system: SW-620
# T47D = test system: T47D
# TK-10 = test system: TK-10
# U-251 = test system: U-251
# UACC-257 = test system: UACC-257
# UACC-62 = test system: UACC-62
# UO-31 = test system: UO-31
smiles,measurement,setting,value
CC(C)/C(Cl)=N/OC(=O)Nc1ccc(Br)cc1,GI50,786-0,1.88 µM (inactive)
same,GI50,A498,18.4 µM (inactive)
same,GI50,A549,18.2 µM (inactive)
same,GI50,ACHN,1.74 µM (inactive)
same,GI50,BT-549,4.29 µM (inactive)
same,GI50,CAKI-1,1.73 µM (inactive)
same,GI50,CCRF-CEM,1.36 µM (inactive)
same,GI50,COLO 205,1.88 µM (inactive)
same,GI50,DU-145,13.7 µM (inactive)
same,GI50,EKVX,1.97 µM (inactive)
same,GI50,HCC 2998,15.5 µM (inactive)
same,GI50,HCT-116,2.9 µM (inactive)
same,GI50,HCT-15,2.12 µM
same,GI50,HL-60,2.58 µM (inactive)
same,GI50,HOP-62,16.9 µM (inactive)
same,GI50,HOP-92,1.77 µM (inactive)
same,GI50,HT-29,5.83 µM (inactive)
same,GI50,Hs-578T,21.7 µM (inactive)
same,GI50,IGROV-1,13 µM (inactive)
same,GI50,K562,1.23 µM (inactive)
same,GI50,KM12,12.9 µM (inactive)
same,GI50,LOX IMVI,1.32 µM (inactive)
same,GI50,M14,2.78 µM (inactive)
same,GI50,MCF7,7.66 µM (inactive)
same,GI50,MDA-MB-231,16.1 µM (inactive)
same,GI50,MDA-MB-435,11 µM (inactive)
same,GI50,MDA-N,4.83 µM (inactive)
same,GI50,MOLT-4,2.39 µM (inactive)
same,GI50,Malme-3M,1.69 µM (inactive)
same,GI50,NCI-H226,16.7 µM (inactive)
same,GI50,NCI-H23,13.3 µM (inactive)
same,GI50,NCI-H460,15 µM (inactive)
same,GI50,NCI-H522,1.52 µM (inactive)
same,GI50,NCI/ADR-RES,13.4 µM (inactive)
same,GI50,OVCAR-3,4.89 µM (inactive)
same,GI50,OVCAR-4,12.7 µM (inactive)
same,GI50,OVCAR-5,14.6 µM (inactive)
same,GI50,OVCAR-8,14.6 µM (inactive)
same,GI50,PC-3,13.6 µM (inactive)
same,GI50,RPMI-8226,1.75 µM (inactive)
same,GI50,RXF 393,10.2 µM (inactive)
same,GI50,SF-268,17.1 µM (inactive)
same,GI50,SF-295,15.2 µM (inactive)
same,GI50,SF-539,13.2 µM (inactive)
same,GI50,SK-MEL-28,3.76 µM (inactive)
same,GI50,SK-MEL-2,16.8 µM (inactive)
same,GI50,SK-MEL-5,12.9 µM (inactive)
same,GI50,SK-OV-3,16.7 µM (inactive)
same,GI50,SN12C,2.16 µM (inactive)
same,GI50,SNB-19,20.8 µM (inactive)
same,GI50,SNB-75,18.6 µM (inactive)
same,GI50,SR,1.83 µM (inactive)
same,GI50,SW-620,2.2 µM (inactive)
same,GI50,T47D,2.67 µM (inactive)
same,GI50,TK-10,13.2 µM (inactive)
same,GI50,U-251,18.7 µM (inactive)
same,GI50,UACC-257,15.2 µM (inactive)
same,GI50,UACC-62,3.82 µM (inactive)
same,GI50,UO-31,11.6 µM (inactive)
